Data published in patent US20260193180A1, “AUTOPHAGY INDUCING COMPOUNDS AND USES THEREOF” (SAMSARA THERAPEUTICS INC., priority 2022, published 2026).
Where a name gives a salt, the structure may show the parent alone. Read-outs that look alike come from different tables or passages of the source.

Tested on: U2OS cell line stabling expressing RFP-eGFP-hLC3b
Assay: Tandem reporter assay (autophagic flux), RFP-only puncta (autolysosomes)
Format: cell-based
Conditions: Homo sapiens, read-out: Activity (Autolysosome % DMSO activity)
Procedure: Selected compounds of this invention were also assessed for their ability to stimulate autophagy using a U2OS cell line stabling expressing RFP-eGFP-hLC3b (a tandem reporter cell line). This assay is further described in WO 2023/089074.
LC3b is a protein found in the membrane of autophagosomes which has been used to generate genetic reporters of autophagy in cells. In these systems a tandem fusion of LC3b is engineered with two fluorescent proteins of different wavelengths: one which is acid sensitive (for example eGFP, which fluoresces green) and the other which is acid insensitive (for example RFP, which fluoresces red). Cells expressing RFP-eGFP-hLC3b can be examined using fluorescent microscopy: the autophagosomes present will fluoresce in both channels (either yellow in an overlay of both channels or puncta that are present in both the individual red and green channels) but the autolysosomes present will fluoresce in the RFP (red) channel only. Using a fluorescent microscope, the number of autophagosomes and autolysosomes can be counted, allowing for the monitoring of both the induction of autophagy (total puncta count) and the rate of autophagic flux (ratio of red-only to red-and-green puncta). The influence of small molecules on autophagy induction and flux can be assessed using this system by comparison to a non-treated control.
Representative Procedure: Human osteosarcoma U20S cells stably expressing RFP-eGFP-hLC3b were seeded (10,000 cells/well) into a 96-well glass-bottom plate (Cell Carrier Ultra, Perkin Elmer) in DMEM Glutamax media (Gibco) supplemented with 10% Fetal Bovine Serum (FBS) and antibiotics (100 μg/ml penicillin, 100 μg/ml streptomycin, Invitrogen), then incubated overnight in a humified atmosphere at 37° C. and 5% CO2. The cells were then treated with the compounds of interest, dissolved in DMSO, in a duplicated 5- or 10-point dose-response. 8 wells were treated with an equivalent volume of DMSO, 4 with 0.3 μM torin-1 as a positive control (MCE) and 4 wells with 0.4 μM torin-1 plus 0.2 μM bafilomycin (MCE) as a control for flux inhibition. The cells were returned to the incubator and the treatment continued for 24 hours. After treatment, the media was aspirated off and the cells fixed with a solution of 4% formaldehyde+1% glutaraldehyde (Sigma) in dPBS (plus magnesium and calcium, Gibco). Fixation was allowed to proceed for 15 minutes at room temperature then the fixative solution discarded and replaced with PBS (Gibco) plus Hoescht 33342 (1 μg/ml, Sigma). After 30 minutes the plates were imaged on an Opera Phenix confocal microscope (Perkin-Elmer) using a 40× water objective, collecting using DAPI, mCherry and GFP channels. Cells were detected based upon the staining of their nuclei with DAPI using the Harmony image analysis software (Perkin-Elmer) and the number of autophagosomes (GFP and RFP puncta) and autolysosomes (RFP only puncta) per cell were counted using the spot picking function within the software.

SMILES | activity at 1.25 µM (average of two runs) | other results
CCOc1ccc(CN2CCC[C@@H](N)C2)cc1Cl [Compound 93, (R)-1-[(3-chloro-4-ethoxyphenyl)methyl]-3-piperidylamine hydrochloride] | 150 to 200% | 
N[C@@H]1CCCN(CCc2ccc(OCC3CC3)c(Cl)c2)C1 [Compound 80, (R)-1-(3-chloro-4-(cyclopropylmethoxy)phenethyl)piperidin-3-amine formate salt] | 250 to 300% | 
CCOc1c(Cl)cc(CN2CC[C@@H](CN)C2)cc1Cl [Compound 70, (S)-(1-(3,5-dichloro-4-ethoxybenzyl)pyrrolidin-3-yl)methanamine hydrochloride] |  | activity at 0.75 µM (0.75 μM, one run): 150 to 200%
CCOc1c(Cl)cc(CN2CC[C@H](CN)C2)cc1C#N [Compound 82, (R)-5-((3-(aminomethyl)pyrrolidin-1-yl)methyl)-3-chloro-2-ethoxybenzonitrile hydrochloride] |  | activity at 1.25 µM (one run): 150 to 200%
N[C@H]1CCN(Cc2cc(Cl)c(OCC3CC3)c(Cl)c2)C1 [Compound 77, (S)-1-(3,5-dichloro-4-(cyclopropylmethoxy)benzyl)pyrrolidin-3-amine hydrochloride] | 250 to 300% | 
NC1CCN(CCc2cc(Cl)c(OCC3CC3)c(Cl)c2)CC1 [Compound 91, 1-{2-[3,5-Dichloro-4-(cyclopropylmethoxy)phenyl]ethyl}-4-piperidylamine hydrochloride] |  | activity at 1.25 µM (one run): 150 to 200%
CCOc1ccc(C#N)cc1CCN1CC[C@@H](N)C1 [Compound 87, 3-{2-[(R)-3-amino-1-pyrrolidinyl]ethyl}-4-ethoxybenzonitrile hydrochloride] | 150 to 200% | 
CCOc1ccc(CN2CCC[C@H](N)C2)cc1Cl [Compound 92, (S)-1-[(3-chloro-4-ethoxyphenyl)methyl]-3-piperidylamine hydrochloride] |  | activity at 0.5 µM (0.5 μM, average of two runs): 150 to 200%
N[C@H]1CCCN(Cc2cc(Cl)c(OCC3CC3)c(Cl)c2)C1 [Compound 96, (S)-1-{[3,5-dichloro-4-(cyclopropylmethoxy)phenyl]methyl}-3-piperidylamine hydrochloride] | 200 to 250% | 
COCCOc1c(Cl)cc(CN2CCC(N)CC2)cc1Cl [Compound 94, 1-{[3,5-dichloro-4-(2-methoxyethoxy)phenyl]methyl}-4-piperidylamine hydrochloride] | 150 to 200% | 
N[C@H]1CCN(CCc2ccc(OCC3CC3)c(Cl)c2)C1 [Compound 100, (S)-1-{2-[3-chloro-4-(cyclopropylmethoxy)phenyl]ethyl}-3-pyrrolidinylamine hydrochloride] | 150 to 200% | 
CCOc1ccc(C#N)cc1CCN1CCC[C@@H](N)C1 [Compound 84, (R)-3-(2-(3-aminopiperidin-1-yl)ethyl)-4-ethoxy benzonitrile hydrochloride] | 200 to 250% | 
NC1CCN(Cc2ccc(OCC3CC3)c(Cl)c2)CC1 [Compound 81, 1-(3-chloro-4-(cyclopropylmethoxy)benzyl)piperidin-4-amine hydrochloride] | 150 to 200% | 
N[C@H]1CCCN(CCc2ccc(OCC3CC3)c(Cl)c2)C1 [Compound 79, (S)-1-(3-chloro-4-(cyclopropylmethoxy)phenethyl)piperidin-3-amine formate salt] | 250 to 300% | 
CCOc1ccc(C#N)cc1CCN1CCC[C@H](N)C1 [Compound 83, (S)-3-(2-(3-aminopiperidin-1-yl)ethyl)-4-ethoxybenzonitrile hydrochloride] | 200 to 250% | 
CCOc1ccc(CCN2CC[C@H](N)C2)cc1C#N [Compound 85, (S)-5-(2-(3-aminopyrrolidin-1-yl)ethyl)-2-ethoxybenzonitrile hydrochloride] |  | activity at 1.25 µM (one run): 150 to 200%
CCOc1c(Cl)cc(CN2CCC(N)CC2)cc1Cl [Compound 90, 1-[(3,5-Dichloro-4-ethoxyphenyl)methyl]-4-piperidylamine hydrochloride] | 200 to 250% | 
CCOc1ccc(CN2CCC(N)CC2)cc1Cl [Compound 75, 1-(3-chloro-4-ethoxybenzyl)piperidin-4-amine hydrochloride] | 200 to 250% | 
